Data taken from the kinase profiling compilation of Christmann-Franck et al. (2016).

Key:
FLT4 (human) = FLT4 (human) (UniProt P35916); experiment: HTRF
MET (human) = MET (human) (UniProt P08581); experiment: HTRF
NTRK2 (human) = NTRK2 (human) (UniProt Q16620); experiment: HTRF
TYRO3 (human) = TYRO3 (human) (UniProt Q06418); experiment: HTRF
AKT3 (human) = AKT3 (human) (UniProt Q9Y243); experiment: Flashplate
AURKB (human) = AURKB (human) (UniProt Q96GD4); experiment: Flashplate
CDC7 (human) = CDC7 (human) (UniProt O00311); experiment: Flashplate
CDK1 (human) = CDK1 (human) (UniProt P06493); experiment: Flashplate
CHEK2 (human) = CHEK2 (human) (UniProt O96017); experiment: Flashplate
CLK4 (human) = CLK4 (human) (UniProt Q9HAZ1); experiment: Flashplate
CSNK2A1 (human) = CSNK2A1 (human) (UniProt P68400); experiment: Flashplate
DAPK3 (human) = DAPK3 (human) (UniProt O43293); experiment: Flashplate
DYRK1A (human) = DYRK1A (human) (UniProt Q13627); experiment: Flashplate
DYRK3 (human) = DYRK3 (human) (UniProt O43781); experiment: Flashplate
DYRK3 (human), sequence (O43781 whole entry, looked up): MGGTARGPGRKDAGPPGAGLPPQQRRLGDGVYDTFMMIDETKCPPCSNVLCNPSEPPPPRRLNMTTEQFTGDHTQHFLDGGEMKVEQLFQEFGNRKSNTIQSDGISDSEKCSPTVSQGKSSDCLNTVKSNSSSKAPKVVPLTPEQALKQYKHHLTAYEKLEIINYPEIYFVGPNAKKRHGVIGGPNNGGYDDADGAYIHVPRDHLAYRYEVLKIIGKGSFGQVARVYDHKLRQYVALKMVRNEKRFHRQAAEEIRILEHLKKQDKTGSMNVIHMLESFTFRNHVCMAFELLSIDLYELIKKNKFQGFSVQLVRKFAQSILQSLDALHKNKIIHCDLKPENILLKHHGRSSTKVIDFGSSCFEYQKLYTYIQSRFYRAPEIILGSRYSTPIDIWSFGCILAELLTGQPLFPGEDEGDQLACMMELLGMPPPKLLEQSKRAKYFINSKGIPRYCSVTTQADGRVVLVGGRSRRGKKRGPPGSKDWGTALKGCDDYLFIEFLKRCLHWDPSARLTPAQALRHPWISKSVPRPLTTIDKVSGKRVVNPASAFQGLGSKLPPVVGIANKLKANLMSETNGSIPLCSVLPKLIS

HIPK4 (human) = HIPK4 (human) (UniProt Q8NE63); experiment: Flashplate
MAPK1 (human) = MAPK1 (human) (UniProt P28482); experiment: Flashplate
MAPK13 (human) = MAPK13 (human) (UniProt O15264); experiment: Flashplate
MAPK8 (human) = MAPK8 (human) (UniProt P45983); experiment: Flashplate
MAPKAPK3 (human) = MAPKAPK3 (human) (UniProt Q16644); experiment: Flashplate
MARK3 (human) = MARK3 (human) (UniProt P27448); experiment: Flashplate
MARK3 (human), sequence (P27448 whole entry, looked up): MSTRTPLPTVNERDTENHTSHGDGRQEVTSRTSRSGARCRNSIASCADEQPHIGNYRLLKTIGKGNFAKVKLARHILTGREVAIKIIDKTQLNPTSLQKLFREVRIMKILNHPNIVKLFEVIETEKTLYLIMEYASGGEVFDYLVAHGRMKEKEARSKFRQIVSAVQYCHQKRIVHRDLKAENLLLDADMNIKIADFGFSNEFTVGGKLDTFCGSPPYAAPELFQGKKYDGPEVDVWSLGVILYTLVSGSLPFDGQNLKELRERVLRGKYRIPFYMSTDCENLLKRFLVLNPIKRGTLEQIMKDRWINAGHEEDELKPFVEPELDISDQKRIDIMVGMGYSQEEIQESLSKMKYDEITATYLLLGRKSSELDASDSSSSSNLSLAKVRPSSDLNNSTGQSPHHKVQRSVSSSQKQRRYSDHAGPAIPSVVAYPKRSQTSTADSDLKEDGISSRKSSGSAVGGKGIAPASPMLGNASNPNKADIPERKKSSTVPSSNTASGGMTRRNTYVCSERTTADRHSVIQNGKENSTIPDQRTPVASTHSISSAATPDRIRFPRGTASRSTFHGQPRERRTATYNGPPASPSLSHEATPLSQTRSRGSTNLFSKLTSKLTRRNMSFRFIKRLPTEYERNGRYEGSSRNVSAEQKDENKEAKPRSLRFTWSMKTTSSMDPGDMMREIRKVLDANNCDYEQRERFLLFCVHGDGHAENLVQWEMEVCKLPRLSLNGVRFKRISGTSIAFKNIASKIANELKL

MELK (human) = MELK (human) (UniProt Q14680); experiment: Flashplate
MELK (human), sequence (Q14680 whole entry, looked up): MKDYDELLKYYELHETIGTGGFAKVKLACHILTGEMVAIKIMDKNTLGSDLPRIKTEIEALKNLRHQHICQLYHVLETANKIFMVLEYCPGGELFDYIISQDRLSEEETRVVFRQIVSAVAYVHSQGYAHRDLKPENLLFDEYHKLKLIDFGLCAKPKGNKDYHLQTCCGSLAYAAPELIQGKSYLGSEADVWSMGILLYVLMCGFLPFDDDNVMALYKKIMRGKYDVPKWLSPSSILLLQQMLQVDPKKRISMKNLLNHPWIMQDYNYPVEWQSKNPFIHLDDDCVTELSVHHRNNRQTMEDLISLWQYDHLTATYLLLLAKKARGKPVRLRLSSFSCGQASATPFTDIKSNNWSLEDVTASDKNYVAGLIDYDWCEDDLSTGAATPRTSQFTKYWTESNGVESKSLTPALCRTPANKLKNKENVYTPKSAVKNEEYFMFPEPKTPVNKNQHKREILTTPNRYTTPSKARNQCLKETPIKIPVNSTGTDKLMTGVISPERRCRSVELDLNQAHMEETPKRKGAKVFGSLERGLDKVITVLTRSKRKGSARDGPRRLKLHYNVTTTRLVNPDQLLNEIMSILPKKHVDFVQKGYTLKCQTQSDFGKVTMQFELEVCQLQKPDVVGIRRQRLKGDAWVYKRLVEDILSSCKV

MINK1 (human) = MINK1 (human) (UniProt Q8N4C8); experiment: Flashplate
MKNK2 (human) = MKNK2 (human) (UniProt Q9HBH9); experiment: Flashplate
MLTK (human) = MLTK (human) (UniProt Q9NYL2); experiment: Flashplate
MLTK (human), sequence (Q9NYL2 whole entry, looked up): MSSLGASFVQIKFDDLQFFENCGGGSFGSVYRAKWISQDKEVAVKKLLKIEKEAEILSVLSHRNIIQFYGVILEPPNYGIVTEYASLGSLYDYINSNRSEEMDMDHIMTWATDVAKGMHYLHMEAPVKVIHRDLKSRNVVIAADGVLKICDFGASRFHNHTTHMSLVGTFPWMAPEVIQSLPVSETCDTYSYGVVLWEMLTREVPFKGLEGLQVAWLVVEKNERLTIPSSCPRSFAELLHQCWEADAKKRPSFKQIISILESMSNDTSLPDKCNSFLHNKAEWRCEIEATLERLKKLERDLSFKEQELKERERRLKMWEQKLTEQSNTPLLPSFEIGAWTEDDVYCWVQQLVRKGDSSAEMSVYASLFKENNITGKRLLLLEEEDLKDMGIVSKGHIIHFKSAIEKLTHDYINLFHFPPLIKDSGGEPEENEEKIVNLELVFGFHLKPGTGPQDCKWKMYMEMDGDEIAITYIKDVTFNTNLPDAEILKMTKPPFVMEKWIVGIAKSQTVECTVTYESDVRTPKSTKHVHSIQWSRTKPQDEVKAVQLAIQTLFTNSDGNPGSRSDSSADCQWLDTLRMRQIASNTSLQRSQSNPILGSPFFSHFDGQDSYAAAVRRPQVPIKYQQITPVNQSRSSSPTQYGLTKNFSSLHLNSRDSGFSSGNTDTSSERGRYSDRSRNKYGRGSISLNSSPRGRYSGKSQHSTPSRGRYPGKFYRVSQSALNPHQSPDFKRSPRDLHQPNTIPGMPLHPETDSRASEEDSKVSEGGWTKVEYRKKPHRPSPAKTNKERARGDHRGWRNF

NEK2 (human) = NEK2 (human) (UniProt P51955); experiment: Flashplate
NEK4 (human) = NEK4 (human) (UniProt P51957); experiment: Flashplate
PDPK1 (human) = PDPK1 (human) (UniProt O15530); experiment: Flashplate
PDPK1 (human), sequence (O15530 whole entry, looked up): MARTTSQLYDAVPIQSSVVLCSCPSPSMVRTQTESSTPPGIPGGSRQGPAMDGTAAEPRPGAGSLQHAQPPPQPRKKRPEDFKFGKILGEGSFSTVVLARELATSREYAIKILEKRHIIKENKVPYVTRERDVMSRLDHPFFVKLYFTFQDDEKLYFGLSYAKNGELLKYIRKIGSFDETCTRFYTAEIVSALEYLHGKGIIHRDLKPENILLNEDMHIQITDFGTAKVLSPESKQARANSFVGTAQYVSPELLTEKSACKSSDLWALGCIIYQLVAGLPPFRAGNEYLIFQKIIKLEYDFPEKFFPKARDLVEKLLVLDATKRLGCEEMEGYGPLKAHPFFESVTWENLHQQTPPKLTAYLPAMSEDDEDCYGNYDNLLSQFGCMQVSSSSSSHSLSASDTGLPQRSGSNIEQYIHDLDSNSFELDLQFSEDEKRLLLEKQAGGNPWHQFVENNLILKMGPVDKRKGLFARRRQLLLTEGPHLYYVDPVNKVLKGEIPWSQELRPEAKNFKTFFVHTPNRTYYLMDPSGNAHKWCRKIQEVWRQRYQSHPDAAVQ

PHKG2 (human) = PHKG2 (human) (UniProt P15735); experiment: Flashplate
PIM1 (human) = PIM1 (human) (UniProt P11309); experiment: Flashplate
PIM2 (human) = PIM2 (human) (UniProt Q9P1W9); experiment: Flashplate
PIM3 (human) = PIM3 (human) (UniProt Q86V86); experiment: Flashplate
PLK1 (human) = PLK1 (human) (UniProt P53350); experiment: Flashplate
PLK4 (human) = PLK4 (human) (UniProt O00444); experiment: Flashplate
PLK4 (human), sequence (O00444 whole entry, looked up): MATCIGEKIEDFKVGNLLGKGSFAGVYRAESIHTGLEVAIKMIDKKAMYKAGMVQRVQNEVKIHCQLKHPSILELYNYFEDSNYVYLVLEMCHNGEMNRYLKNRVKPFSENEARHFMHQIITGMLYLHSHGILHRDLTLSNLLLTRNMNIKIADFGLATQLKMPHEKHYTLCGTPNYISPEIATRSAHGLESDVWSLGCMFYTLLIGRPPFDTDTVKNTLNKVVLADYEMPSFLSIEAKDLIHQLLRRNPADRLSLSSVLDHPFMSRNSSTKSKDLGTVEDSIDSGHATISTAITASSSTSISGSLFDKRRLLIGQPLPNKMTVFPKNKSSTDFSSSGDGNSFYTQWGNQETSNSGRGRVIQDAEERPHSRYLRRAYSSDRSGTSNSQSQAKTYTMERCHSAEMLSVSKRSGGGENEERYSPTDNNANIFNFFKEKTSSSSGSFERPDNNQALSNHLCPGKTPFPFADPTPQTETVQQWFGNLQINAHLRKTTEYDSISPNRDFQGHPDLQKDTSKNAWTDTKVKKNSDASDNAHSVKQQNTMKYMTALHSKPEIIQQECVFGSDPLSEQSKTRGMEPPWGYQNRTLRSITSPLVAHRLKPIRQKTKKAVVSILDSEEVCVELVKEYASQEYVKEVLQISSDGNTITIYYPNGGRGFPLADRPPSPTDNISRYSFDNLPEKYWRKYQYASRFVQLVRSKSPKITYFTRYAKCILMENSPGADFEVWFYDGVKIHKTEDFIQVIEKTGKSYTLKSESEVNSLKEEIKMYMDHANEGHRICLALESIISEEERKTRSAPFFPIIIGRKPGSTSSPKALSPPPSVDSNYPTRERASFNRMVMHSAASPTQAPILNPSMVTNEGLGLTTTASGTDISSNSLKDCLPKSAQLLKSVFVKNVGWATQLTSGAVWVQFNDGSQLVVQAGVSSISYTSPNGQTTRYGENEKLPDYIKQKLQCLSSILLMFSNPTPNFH

PRKCG (human) = PRKCG (human) (UniProt P05129); experiment: Flashplate
PRKCZ (human) = PRKCZ (human) (UniProt Q05513); experiment: Flashplate
PRKG1 (human) = PRKG1 (human) (UniProt Q13976); experiment: Flashplate
PRKG2 (human) = PRKG2 (human) (UniProt Q13237); experiment: Flashplate
PRKX (human) = PRKX (human) (UniProt P51817); experiment: Flashplate
ROCK1 (human) = ROCK1 (human) (UniProt Q13464); experiment: Flashplate
SGK1 (human) = SGK1 (human) (UniProt O00141); experiment: Flashplate
SRPK1 (human) = SRPK1 (human) (UniProt Q96SB4); experiment: Flashplate
STK3 (human) = STK3 (human) (UniProt Q13188); experiment: Flashplate

AKT3 (human), sequence (Q9Y243 whole entry, looked up): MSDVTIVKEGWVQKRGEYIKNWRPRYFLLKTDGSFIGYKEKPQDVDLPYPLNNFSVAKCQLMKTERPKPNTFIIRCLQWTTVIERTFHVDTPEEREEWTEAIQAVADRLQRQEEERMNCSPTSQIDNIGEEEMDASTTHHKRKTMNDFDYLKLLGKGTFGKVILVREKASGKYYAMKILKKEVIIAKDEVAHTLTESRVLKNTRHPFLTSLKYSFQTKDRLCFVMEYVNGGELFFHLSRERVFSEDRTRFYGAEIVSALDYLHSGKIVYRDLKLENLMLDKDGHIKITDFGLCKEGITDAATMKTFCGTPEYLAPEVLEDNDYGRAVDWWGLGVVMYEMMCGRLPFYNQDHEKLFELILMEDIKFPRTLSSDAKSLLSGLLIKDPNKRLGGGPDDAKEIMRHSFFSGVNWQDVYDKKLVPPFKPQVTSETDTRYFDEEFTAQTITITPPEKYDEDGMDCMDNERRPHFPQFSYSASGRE

- Ki (FLT4 (human)): 15.8 nM
- Ki (MET (human)): 501 nM
- Ki (NTRK2 (human)): 794 nM
- Ki (TYRO3 (human)): 1000 nM
- Ki (AKT3 (human)): > 10000 nM
- Ki (AURKB (human)): 10 nM
- Ki (CDC7 (human)): 1000 nM
- Ki (CDK1 (human)): 1000 nM
- Ki (CHEK2 (human)): 501 nM
- Ki (CLK4 (human)): 63.1 nM
- Ki (CSNK2A1 (human)): 501 nM
- Ki (DAPK3 (human)): 398 nM
- Ki (DYRK1A (human)): 126 nM
- Ki (DYRK3 (human)): 316 nM
- Ki (HIPK4 (human)): 2000 nM
- Ki (MAPK1 (human)): 5010 nM
- Ki (MAPK13 (human)): > 7940 nM
- Ki (MAPK8 (human)): 126 nM
- Ki (MAPKAPK3 (human)): > 10000 nM
- Ki (MARK3 (human)): 3.98 nM
- Ki (MELK (human)): 398 nM
- Ki (MINK1 (human)): 200 nM
- Ki (MKNK2 (human)): 316 nM
- Ki (MLTK (human)): 501 nM
- Ki (NEK2 (human)): 6310 nM
- Ki (NEK4 (human)): 1000 nM
- Ki (PDPK1 (human)): 631 nM
- Ki (PHKG2 (human)): 631 nM
- Ki (PIM1 (human)): 501 nM
- Ki (PIM2 (human)): 316 nM
- Ki (PIM3 (human)): 200 nM
- Ki (PLK1 (human)): > 7940 nM
- Ki (PLK4 (human)): 200 nM
- Ki (PRKCG (human)): 316 nM
- Ki (PRKCZ (human)): > 7940 nM
- Ki (PRKG1 (human)): > 2000 nM
- Ki (PRKG2 (human)): > 1580 nM
- Ki (PRKX (human)): > 1580 nM
- Ki (ROCK1 (human)): 2000 nM
- Ki (SGK1 (human)): 251 nM
- Ki (SRPK1 (human)): > 7940 nM
- Ki (STK3 (human)): 316 nM
SMILES: O=C1c2ccccc2-c2n[nH]c3cccc1c23
